Measured values reported in the supplement of paper PMC10307832.

Legend:
Assay in all cases: relative viability (nuclei count vs DMSO), 5 days (fraction); higher = more cells survive
NPK76-II-72-1 + OSI-027 = compound: CC1CC(=O)N(C2=CN=C(N=C2N1C3CCCC3)NC4=C(C=C(C=C4)C(=O)NC5CCN(CC5)C)OC)C [NPK76-II-72-1] + COc1cccc2cc(-c3nc([C@H]4CC[C@H](C(=O)O)CC4)n4ncnc(N)c34)[nH]c12 [OSI-027] (partner 0.5 µM)
Method in brief: (§1)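 Lung cancer cell lines were pin-tool dosed in 1536-well plates on the day after seeding, with either a lone drug or a fixed anchor-drug dose plus five library-drug doses (not always all listed) in √10 steps. Nuclei were counted on 4× images after 5 days. Relative viability is the ratio of treated-well to vehicle-well nuclei counts, with each value a median of duplicate plates.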

BI-2536 + Lapatinib = compound: CC[C@@H]1C(=O)N(C)c2cnc(Nc3ccc(C(=O)NC4CCN(C)CC4)cc3OC)nc2N1C1CCCC1 [BI-2536] + CS(=O)(=O)CCNCc1ccc(-c2ccc3ncnc(Nc4ccc(OCc5cccc(F)c5)c(Cl)c4)c3c2)o1 [Lapatinib] (partner 2 µM)
Method in brief: as §1

BI-2536 + Dasatinib = compound: CC[C@@H]1C(=O)N(C)c2cnc(Nc3ccc(C(=O)NC4CCN(C)CC4)cc3OC)nc2N1C1CCCC1 [BI-2536] + Cc1nc(Nc2ncc(C(=O)Nc3c(C)cccc3Cl)s2)cc(N2CCN(CCO)CC2)n1 [Dasatinib] (partner 0.075 µM)
Method in brief: as §1

[1] = compound: CC1CC(=O)N(C2=CN=C(N=C2N1C3CCCC3)NC4=C(C=C(C=C4)C(=O)NC5CCN(CC5)C)OC)C [NPK76-II-72-1] + CS(=O)(=O)N1CCN(Cc2cc3nc(-c4cccc5[nH]ncc45)nc(N4CCOCC4)c3s2)CC1 [Pictilisib] (partner 1 µM)
Method in brief: as §1

Row | Cell Line | relative viability (NPK76-II-72-1 + OSI-027; first compound 0.01 µM) | relative viability (NPK76-II-72-1 + OSI-027; first compound 0.03162 µM) | relative viability (NPK76-II-72-1 + OSI-027; first compound 0.1 µM) | relative viability (NPK76-II-72-1 + OSI-027; first compound 0.3162 µM) | relative viability (NPK76-II-72-1 + OSI-027; first compound 1 µM) | relative viability (BI-2536 + Lapatinib; first compound 0.01 µM) | relative viability (BI-2536 + Lapatinib; first compound 0.03162 µM) | relative viability (BI-2536 + Lapatinib; first compound 0.1 µM) | relative viability (BI-2536 + Lapatinib; first compound 0.3162 µM) | relative viability (BI-2536 + Lapatinib; first compound 1 µM) | relative viability (BI-2536 + Dasatinib; first compound 0.03162 µM) | relative viability (BI-2536 + Dasatinib; first compound 0.1 µM) | relative viability (BI-2536 + Dasatinib; first compound 0.3162 µM) | relative viability (BI-2536 + Dasatinib; first compound 1 µM) | relative viability ([1]; first compound 0.01 µM) | relative viability ([1]; first compound 0.03162 µM) | relative viability ([1]; first compound 0.1 µM) | relative viability ([1]; first compound 0.3162 µM) | relative viability ([1]; first compound 1 µM) | relative viability (BI-2536 + Dasatinib; first compound 0.01 µM)
1 | NCI-H2347 | 0.407 | 0.502 | 0.466 | 0.366 | 0.274 | 0.786 | 0.986 | 0.769 | 0.413 | 0.621 | 0.293 | 0.285 | 0.278 | 0.167 | 0.811 | 0.817 | 0.727 | 0.773 | 0.631 | 
2 | NCI-H1993 | 0.532 | 0.534 | 0.51 | 0.528 | 0.549 | 0.81 | 0.828 | 0.533 | 0.566 | 0.555 | 0.577 | 0.51 | 0.514 | 0.485 | 0.811 | 0.804 | 0.779 | 0.88 | 0.759 | 0.688
3 | NCI-H2342 | 0.632 | 0.572 | 0.632 | 0.435 | 0.58 |  |  |  |  |  | 0.313 | 0.267 | 0.213 | 0.227 |  |  |  |  |  | 0.326
4 | ChaGo-K-1 | 0.561 | 0.622 | 0.582 | 0.63 | 0.653 |  |  |  |  |  | 0.667 | 0.446 | 0.194 | 0.197 | 0.736 | 0.642 | 0.685 | 0.686 | 0.367 | 0.594
5 | HCC-44 | 0.617 | 0.702 | 0.337 | 0.599 | 0.65 | 1.07 | 0.988 | 0.287 | 0.0973 | 0.0863 |  |  |  |  | 0.542 | 0.911 | 0.624 | 0.587 | 0.685 | 
6 | A549 |  |  |  |  |  | 1.05 | 0.813 | 0.476 | 0.053 | 0.0394 |  |  |  |  | 0.469 | 0.509 | 0.535 | 0.529 | 0.572 | 
7 | SW 900 | 0.542 | 0.475 | 0.513 | 0.601 | 0.713 |  |  |  |  |  | 0.596 | 0.391 | 0.181 | 0.139 |  |  |  |  |  | 0.629
8 | IA-LM |  |  |  |  |  | 0.699 | 0.639 | 0.408 | 0.139 | 0.0816 |  |  |  |  | 0.314 | 0.363 | 0.33 | 0.243 | 0.334 | 
9 | NCI-H1703 |  |  |  |  |  | 0.956 |  | 0.323 | 0.174 | 0.113 |  |  |  |  | 0.257 | 0.224 | 0.298 | 0.283 | 0.254 | 
10 | NCI-H441 | 0.596 | 0.73 | 0.561 | 0.579 | 0.788 |  |  |  |  |  | 0.244 | 0.195 | 0.164 | 0.179 | 0.419 | 0.507 | 0.605 | 0.471 | 0.425 | 0.434
11 | LCLC-103H | 0.458 | 0.41 | 0.477 | 0.439 | 0.413 |  |  |  |  |  | 0.467 | 0.413 | 0.147 | 0.089 | 0.692 | 0.761 | 0.671 | 0.609 | 0.679 | 0.405
12 | NCI-H1648 | 0.239 | 0.244 |  |  | 0.26 |  |  |  |  |  |  |  |  |  |  |  |  |  |  | 
